Remaining activity data for one compound are collected here from PMC10578352, “Identification of a Protein Arginine Methyltransferase 7 (PRMT7)/Protein Arginine Methyltransferase 9 (PRMT9) Inhibitor” (Journal of Medicinal Chemistry, 2023).

Each structure is given as a SMILES string.

Holding throughout (type): biochemical
One assay addresses T1, ASH1L/KMT2H (Homo sapiens, UniProt Q9NR48).
T1 construct: the human recombinant ASH1L (residues 2046–2330, with an N-terminal His-tag); His (N); purchased Reaction Biology Corporation
Nature of the assay: HotSpot KMT activity assay, ASH1L. Particulars: read-out: % ASH1L residual activity. The source says:
(§1) ; MW = 35.4 kDa; Genbank Accession # NM_018489), or the human recombinant EZH2-containing five-member polycomb repressive complex 2 (including EZH2 residues 2–746, AEBP2 2–517, EED 2–441, RbAp48 2–425, SUZ12 2–739; all full-length; with N-terminal Flag-tag on EED and N-terminal His-tag on all others; MW = 333.8 kDa; Genbank Accession # NM_001203247, NM_001114176, NM_003797, NM_005610, NM_015355), or the human recombinant G9a (residues 913–1193, C-terminus; with an N-terminal His-tag; MW = 34.6 kDa; Genbank Accession # NM_006709.3), or the human recombinant MLL1 complex (including MLL1 residues 3745–3969, C-terminus, WDR5 22–334, C-terminus, RbBP5 1–538, C-terminus, ASH2L 2–534, C-terminus, DPY-30 1–99, C-terminus; N-terminal His-tag on all subunits; MW = 212.0 kDa; Genbank Accession # NM_005933, NM_017588, NM_005057, NM_001105214, NM_0325742), or the human recombinant SET7/9 (residues 2–366, C-terminus; with a N-terminal GST-tag and a C-terminal His-tag; MW = 68.5 kDa; Genbank Accession # NM_030648), or the human recombinant SMYD3 (residues 2–428, C-terminus; C-terminal His-tag; MW = 50.1 kDa; Genbank Accession # NM_001167740), or the human recombinant SUV39H2 (residues 46–410, C-terminus; N-terminal fusion protein with a C-terminal His-tag; MW = 98.8 kDa; GenBank Accession No. NM_001193424), or the human recombinant DOT1L (residues 1–416; N-terminal GST-tag; MW = 80.0 kDa; Genbank Accession # NM_032482) was added to a solution of the proper substrate (oligo nucleosomes for ASH1L, MLL1 complex, and DOT1L, final concentration 0.05 mg/mL; core histone for EZH2 complex and SET7/9, final concentration 0.05 mg/mL; histone H3 for SUV39H2, final concentration 5 μM; histone H3 1–21 for G9a, final concentration 2.5 μM) in freshly prepared reaction buffer (50 mM Tris-HCl (pH 8.5), 5 mM MgCl2, 50 mM NaCl, 1 mM DTT, 1 mM PMSF, 1% DMSO) and gently mixed. […] After incubation for 60 min at 30 °C, the reaction mixture was delivered to filter paper for detection (as assessed by scintillation). […] Values obtained for each compound are mean ± SD determined for two separate experiments.

The target of a further assay is T2, G9a/KMT1C (Homo sapiens, UniProt Q96KQ7).
T2 construct: the human recombinant G9a (residues 913–1193, C-terminus); with an N-terminal His-tag; His (N); purchased Reaction Biology Corporation
Nature of the assay: HotSpot KMT activity assay, G9a. Particulars: read-out: % G9a residual activity. Here is the method:
Then, ^3H-SAM (final concentration 1 μM) was delivered into the reaction mixture to initiate the reaction. After incubation for 60 min at 30 °C, the reaction mixture was delivered to filter paper for detection (as assessed by scintillation). […] No inhibitor control (DMSO) was considered as showing 100% enzyme activity. Data were analyzed using Excel and GraphPad Prism 6.0 software (GraphPad Software Inc., San Diego, CA). Values obtained for each compound are mean ± SD determined for two separate experiments.

The target of assay [1] is T3, MLL1/KMT2A (5 component complex) (Homo sapiens, UniProt Q03164).
T3 construct: MLL1 residues 3745–3969, C-terminus; His (N); purchased Reaction Biology Corporation
Briefly: HotSpot KMT activity assay, MLL1. Particulars: read-out: % MLL1 residual activity.
Excerpt: as §1

The target in another assay is T4, SUV39H2/KMT1B (Homo sapiens, UniProt Q9H5I1).
T4 construct: the human recombinant SUV39H2 (residues 46–410, C-terminus); His (C); purchased Reaction Biology Corporation
Nature of the assay: HotSpot KMT activity assay, SUV39H2. Particulars: read-out: % SUV39H2 residual activity.
Excerpt: as §1

T2 sequence (Q96KQ7 913-1193): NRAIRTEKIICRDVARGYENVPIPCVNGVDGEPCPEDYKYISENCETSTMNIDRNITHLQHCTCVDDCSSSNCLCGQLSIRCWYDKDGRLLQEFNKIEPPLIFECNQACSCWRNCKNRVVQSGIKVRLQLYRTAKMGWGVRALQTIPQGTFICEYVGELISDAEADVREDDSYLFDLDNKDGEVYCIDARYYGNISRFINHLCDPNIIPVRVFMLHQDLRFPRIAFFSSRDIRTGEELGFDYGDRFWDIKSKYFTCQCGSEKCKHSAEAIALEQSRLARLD
T4 sequence (Q9H5I1 46-410): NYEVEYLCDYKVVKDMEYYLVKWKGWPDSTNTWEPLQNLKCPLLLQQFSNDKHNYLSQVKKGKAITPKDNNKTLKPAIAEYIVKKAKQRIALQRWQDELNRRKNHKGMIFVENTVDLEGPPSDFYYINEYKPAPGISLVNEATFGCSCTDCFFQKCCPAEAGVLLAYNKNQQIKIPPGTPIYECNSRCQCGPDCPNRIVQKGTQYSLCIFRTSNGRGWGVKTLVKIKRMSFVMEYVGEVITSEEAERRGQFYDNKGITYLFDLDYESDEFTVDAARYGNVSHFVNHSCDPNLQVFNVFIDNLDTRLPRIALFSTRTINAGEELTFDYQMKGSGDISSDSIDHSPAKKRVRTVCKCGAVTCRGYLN

Consider `COC(=O)c1cc(O)c2cc(NC(=O)NCCCNC(=N)NC[C@H]3O[C@@H](n4cnc5c(N)ncnc54)[C@H](O)[C@@H]3O)cc(C(F)(F)F)c2c1` [1j, Methyl 6-(3-(3-(3-(((2R,3S,4R,5R)-5-(6-Amino-9H-purin-9-yl)-3,4-dihydroxytetrahydrofuran-2-yl)methyl)guanidino)propyl)ureido)-4-hydroxy-8-(trifluoromethyl)-2-naphthoate], for which the remaining activity at 10 µM on ASH1L/KMT2H (10 μM) turned out to be 95.4 ± 1.49%; on G9a/KMT1C (10 μM), 111 ± 4.3%; in assay [1] (10 μM), 90.5 ± 2.83%; at SUV39H2/KMT1B (10 μM), 89.7 ± 1.08%. Besides, the remaining activity at 100 µM was found to be 109 ± 3.8% on ASH1L/KMT2H (100 μM), 70.93 ± 0.31% at G9a/KMT1C (100 μM), 76.9 ± 3.96% in assay [1] (100 μM) and 83.76 ± 0.22% at SUV39H2/KMT1B (100 μM).
